# Measurements from patent publication US12006321B2, “Substituted pyrazolo[1,5-a]pyrimidines as apelin receptor agonists” (Sanford Burnham Prebys Medical Discovery Institute, priority 2017, dated 2024).
# Molecular target: T1, human apelin receptor (APJ, APLNR) (Homo sapiens, UniProt P35414)
# T1 construct: host or cells: Chinese hamster ovary (CHO) cells, stably integrated receptor
# T1 sequence (P35414 1-380): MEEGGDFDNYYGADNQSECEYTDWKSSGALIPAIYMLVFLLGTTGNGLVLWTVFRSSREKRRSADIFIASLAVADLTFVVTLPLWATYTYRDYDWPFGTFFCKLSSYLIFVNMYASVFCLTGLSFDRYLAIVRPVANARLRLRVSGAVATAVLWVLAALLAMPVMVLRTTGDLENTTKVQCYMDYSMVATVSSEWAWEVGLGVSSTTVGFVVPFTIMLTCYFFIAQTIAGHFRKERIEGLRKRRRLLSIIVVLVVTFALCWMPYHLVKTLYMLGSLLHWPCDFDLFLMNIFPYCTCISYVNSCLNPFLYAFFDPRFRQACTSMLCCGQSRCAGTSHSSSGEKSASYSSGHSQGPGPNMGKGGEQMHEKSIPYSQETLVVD
# Test: cell-based cAMP assay (TR-FRET) in Chinese hamster ovary cells expressing the apelin receptor
# Settings: EC50 = 50% of control (apelin-13, 1 nM) response; cAMP in CHO cells, 0.5 h incubation; read-out: Potency Category
# Description: This example illustrates the biological activity of various compounds tested against the APJ receptor.
# Commercially available cell lines were used to screen chemical libraries to identify compounds that potently and selectively activated the human apelin receptor. The assays disclosed herein were performed using cell lines from DiscoveX, Inc.
# Biological activity was determined to the cell-based assay. This assay detects activation of the receptor by reporting on intracellular cyclic adenosine monophosphate (cAMP) level. Chinese hamster ovary cells engineered to express the stably integrated human appellant receptor (APJ, AGTRL-one, APLNR), pleaded into the wells of the microtiter plate. Cells were stimulated with […] to increase intracellular cyclic AMP. Immediately following, compounds were added to the range of final concentrations 0.0-100 μM, in DMSO (not to exceed a final DMSO concentration greater than 1% v/v), and allowed to incubate with the cells for 0.5 h. At the end of the incubation, cells were lysed to stop APJ signaling and cAMP was quantified using a commercially available competitive immunoassay kit that applies homogenous time-resolved florescence energy transfer (TR-FRET). The assay is based on the competition between a europium (Eu) chelate-labeled cAMP donor tracer and cellular cAMP for binding sites on a cAMP-specific monoclonal antibody labeled with an acceptor fluorophore. When antibodies are bound to the cAMP tracer light emissions at 320 nm stimulate the energy transfer from the donor to the acceptor, which in turn emits light at 665 nm. In the presence of competitive unlabeled cAMP (derived from the activity of the receptor or forskolin-stimulated production of cAMP), the labelled cAMP tracer is dissociated from the cAMP antibody, resulting in a loss of FRET signal. The amount of light emitted by the FRET is inversely proportional to the cAMP generated by the cell/receptor system. Potency and efficacy at APJ are reported in reference to the canonical APJ receptor agonist apelin-13 when tested at 1 nM.
# Compound competency is reported as the effective concentration required to effect 50% (EC 50) of the control (apelin—13, 1 nM) response in micromole are (μM) units. Compound efficacy (% response) is reported as a percentage of the maximal apein-13 response at 1 nM (control). Potencies were calculated by fitting a four-point logistic curve to concentration response consisting of at least 10 discrete data points spanning effective range of the compounds in the cell-based assay that measures cAMP. In Table 1, the Potency Categories are A, B, C and D. Category A EC50>500 nM; Category B 200<EC50<500 nM; Category C 100<EC50<200 nM; Category D<100 nM.
row,EC50 [nM],SMILES
1,> 500,"COC(=O)c1cc(C(C)(C)C)n2nc(C)c(-c3ccccc3)c2n1 [Compound 1, methyl 7-(tert-butyl)-2-methyl-3-phenyl-8-hydropyrazolo[1,5-a]pyrimidine-5-carboxylate]"
2,> 500,"Cc1nn2c(C(C)(C)C)cc(C(=O)O)nc2c1-c1ccccc1 [Compound 2, 7-(tert-butyl)-2-methyl-3-phenyl-8-hydropyrazolo[1,5-a]pyrimidine-5-carboxylic acid]"
3,> 500,"Cc1nn2c(C(C)C)cc(C(=O)O)nc2c1-c1ccccc1 [Compound 3, 2-methyl-7-(methylethyl)-3-phenyl-8-hydropyrazolo[1,5-a]pyrimidine-5-carboxylic acid]"
4,> 500,"Cc1nn2c(C)cc(C(=O)O)nc2c1-c1ccccc1 [Compound 4, 2,7-dimethyl-3-phenyl-8-hydropyrazolo[1,5-a]pyrimidine-5-carboxylic acid]"
5,> 500,"Cc1ccc(-c2c(C)nn3c(C(C)C)cc(C(=O)O)nc23)cc1 [Compound 5, 2-methyl-7-(methylethyl)-3-(4-methylphenyl)-8-hydropyrazolo[1,5-a]pyrimidine-5-carboxylic acid]"
6,> 500,"Cc1nn2c(C3CC3)cc(C(=O)O)nc2c1-c1ccccc1 [Compound 6, 7-cyclopropyl-2-methyl-3-phenyl-8-hydropyrazolo[1,5-a]pyrimidine-5-carboxylic acid]"
7,> 500,"CC(C)c1cc(C(=O)O)nc2c(-c3ccccc3)cnn12 [Compound 7, 7-(methylethyl)-3-phenyl-8-hydropyrazolo[1,5-a]pyrimidine-5-carboxylic acid]"
8,> 500,"Cc1nn2c(C(C)C)cc(C(=O)O)nc2c1-c1ccc(F)cc1 [Compound 8, 3-(4-fluorophenyl)-2-methyl-7-(methylethyl)-8-hydropyrazolo[1,5-a]pyrimidine-5-carboxylic acid]"
9,> 500,"COc1ccc(-c2c(C)nn3c(C(C)C)cc(C(=O)O)nc23)cc1 [Compound 9, 3-(4-methoxyphenyl)-2-methyl-7-(methylethyl)-8-hydropyrazolo[1,5-a]pyrimidine-5-carboxylic acid]"
10,> 500,"COc1ccc(-c2c(C)nn3c(C(=O)O)cc(C(C)C)nc23)cc1 [Compound 10, 3-(4-methoxyphenyl)-2-methyl-5-(methylethyl)-8-hydropyrazolo[1,5-a]pyrimidine-7-carboxylic acid]"
11,> 500,"CCOC(=O)c1cc(C(C)C)n2nc(C3CC3)c(-c3ccccc3)c2n1 [Compound 11, ethyl 2-cyclopropyl-7-(methylethyl)-3-phenyl-8-hydropyrazolo[1,5-a]pyrimidine-5-carboxylate]"
12,> 500,"CC(C)c1cc(C(=O)O)nc2c(-c3ccccc3)c(C3CC3)nn12 [Compound 12, 2-cyclopropyl-7-(methylethyl)-3-phenyl-8-hydropyrazolo[1,5-a]pyrimidine-5-carboxylic acid]"
13,> 500,"CCc1nn2c(C(C)C)cc(C(=O)O)nc2c1-c1ccccc1 [Compound 13, 2-ethyl-7-(methylethyl)-3-phenyl-8-hydropyrazolo[1,5-a]pyrimidine-5-carboxylic acid]"
14,> 500,"Cc1nn2c(C(C)C)cc(C(N)=O)nc2c1-c1ccccc1 [Compound 14, 2-methyl-7-(methylethyl)-3-phenyl-8-hydropyrazolo[1,5-a]pyrimidine-5-carboxamide]"
15,> 500,"CNC(=O)c1cc(C(C)C)n2nc(C)c(-c3ccccc3)c2n1 [Compound 15, N-methyl[2-methyl-7-(methylethyl)-3-phenyl(8-hydropyrazolo[1,5-a]pyrimidin-5-yl)]carboxamide]"
16,> 500,"Cc1nn2c(C(C)C)cc(C(=O)N(C)C)nc2c1-c1ccccc1 [Compound 16, N,N-dimethyl[2-methyl-7-(methylethyl)-3-phenyl(8-hydropyrazolo[1,5-a]pyrimidin-5-yl)]carboxamide]"

row,EC50 [nM],SMILES
1,> 500,"CCOC(=O)c1cc(C(C)C)n2nc(C)c(-c3cccc(OC)c3)c2n1 [Compound 18, ethyl 3-(3-methoxyphenyl)-2-methyl-7-(methylethyl)-8-hydropyrazolo[1,5-a]pyrimidine-5-carboxylate]"
2,> 500,"CCOC(=O)c1cc(C(C)C)n2nc(C)c(-c3ccccc3Cl)c2n1 [Compound 19, ethyl 3-(2-chlorophenyl)-2-methyl-7-(methylethyl)-8-hydropyrazolo[1,5-a]pyrimidine-5-carboxylate]"
3,100 to 200,"Cc1ccccc1-c1c(C)nn2c(C(C)C)cc(C(=O)O)nc12 [Compound 20, 2-methyl-7-(methylethyl)-3-(2-methylphenyl)-8-hydropyrazolo[1,5-a]pyrimidine-5-carboxylic acid]"
4,> 500,"Cc1nn2c(C(C)C)cc(C(=O)O)nc2c1-c1ccccc1Cl [Compound 21, 3-(2-chlorophenyl)-2-methyl-7-(methylethyl)-8-hydropyrazolo[1,5-a]pyrimidine-5-carboxylic acid]"
5,> 500,"COc1cccc(-c2c(C)nn3c(C(C)C)cc(C(=O)O)nc23)c1 [Compound 22, 3-(3-methoxyphenyl)-2-methyl-7-(methylethyl)-8-hydropyrazolo[1,5-a]pyrimidine-5-carboxylic acid]"
6,> 500,"CCOC(=O)c1cc(C(C)C)n2nc(C)c(-c3ccccc3F)c2n1 [Compound 23, ethyl 3-(2-fluorophenyl)-2-methyl-7-(methylethyl)-8-hydropyrazolo[1,5-a]pyrimidine-5-carboxylate]"
7,> 500,"CC1=NC2C(C(C)C)=CC(C(=O)O)=NC2=C1c1ccccc1F (centres unmarked) [Compound 24, 3-(2-fluorophenyl)-2-methyl-7-(methylethyl)-8-hydropyrazolo[1,5-a]pyrimidine-5-carboxylic acid]"
8,> 500,"CCOC(=O)c1cc(C(C)C)n2nc(C)c(-c3cccc(F)c3)c2n1 [Compound 25, ethyl 3-(3-fluorophenyl)-2-methyl-7-(methylethyl)-8-hydropyrazolo[1,5-a]pyrimidine-5-carboxylate]"
9,> 500,"Cc1nn2c(C(C)C)cc(C(=O)O)nc2c1-c1cccc(F)c1 [Compound 26, 3-(3-fluorophenyl)-2-methyl-7-(methylethyl)-8-hydropyrazolo[1,5-a]pyrimidine-5-carboxylic acid]"
10,> 500,"CCOC(=O)c1cc(C(C)C)n2nc(C)c(-c3cccc(C)c3)c2n1 [Compound 27, ethyl 2-methyl-7-(methylethyl)-3-(3-methylphenyl)-8-hydropyrazolo[1,5-a]pyrimidine-5-carboxylate]"
11,> 500,"Cc1cccc(-c2c(C)nn3c(C(C)C)cc(C(=O)O)nc23)c1 [Compound 28, 2-methyl-7-(methylethyl)-3-(3-methylphenyl)-8-hydropyrazolo[1,5-a]pyrimidine-5-carboxylic acid]"
12,> 500,"CCOC(=O)c1cc(C(C)C)n2nc(C)c(-c3ccccc3OC)c2n1 [Compound 29, ethyl 3-(2-methoxyphenyl)-2-methyl-7-(methylethyl)-8-hydropyrazolo[1,5-a]pyrimidine-5-carboxylate]"
13,> 500,"CCOC(=O)c1cc(C(C)C)n2nc(C)c(-c3cccc(Cl)c3)c2n1 [Compound 30, ethyl 3-(3-chlorophenyl)-2-methyl-7-(methylethyl)-8-hydropyrazolo[1,5-a]pyrimidine-5-carboxylate]"
14,> 500,"COc1ccccc1-c1c(C)nn2c(C(C)C)cc(C(=O)O)nc12 [Compound 31, 3-(2-methoxyphenyl)-2-methyl-7-(methylethyl)-8-hydropyrazolo[1,5-a]pyrimidine-5-carboxylic acid]"
15,> 500,"Cc1nn2c(C(C)C)cc(C(=O)O)nc2c1-c1cccc(Cl)c1 [Compound 32, 3-(3-chlorophenyl)-2-methyl-7-(methylethyl)-8-hydropyrazolo[1,5-a]pyrimidine-5-carboxylic acid]"
16,> 500,"CCOC(=O)c1cc(CC)n2nc(C)c(-c3ccccc3)c2n1 [Compound 33, ethyl 7-ethyl-2-methyl-3-phenyl-8-hydropyrazolo[1,5-a]pyrimidine-5-carboxylate]"
